Results taken from patent publication US20170152258A9, “Substituted Pyridopyrazines as Syk Inhibitors” (HUTCHISON MEDIPHARMA LIMITED, priority 2012, published 2017).

Columns and labels:
RBL-2H3 cells = test: IgE-induced Beta-hexosaminidase secretion in RBL-2H3 cells; format: cell-based; conditions: DNP-BSA stimulation
Description: For the determination of IgE-induced Beta-hexosaminidase secretion, RBL-2H3 cells (SIBS) are seeded in 96 well plates at 4×10^4 cells per well and incubated in MEM media with 15% FBS and Glutamine ([…]) for 4 hours and sensitized with 0.5 ug/ml of SPE-7 overnight. Cells are washed 3 times with Tyrode's buffer and incubated in the presence or absence of various concentrations of the testing compound for 20 min at 37° C., 5% CO2. Cells are stimulated by adding 10 uL of DNP-BSA solution (150 ng/mL) to each well and incubating for 45 minutes at 37° C., 5% CO2. Then, 45 μL of the supernatant is taken and incubated with 100 μL of 1 mM 4-Nitrophenyl N-acetyl-β-D-glucosaminide (Sigma, Cat. No. N9376), which is diluted in 0.05 M citrate buffer (pH 4.5), for 1.5 hr at 37° C. The reactions are quenched by adding 185 μL of 0.05 M sodium carbonate buffer (pH 10.0). Plates are read at 405 nm on Multiskan (MK 3).

Syk kinase = Syk kinase (Homo sapiens, UniProt P43405); test: SYK Enzymatic Assay (Z-LYTE Tyr 2 peptide); format: biochemical; conditions: 8 concentrations 1 μM down to 0.0003 μM
Description: Syk kinase assay are performed in vitro using Kit-Tyr 2 Peptide (Invitrogen, Cat. No. PV3191) and in a 384-well assay plate. […] The 384-well assay plate (Corning, Cat. No. 3575) is mixed and incubated at room temperature for 1 hour. 10 μL of the Development Solution (prepared by diluting Development Reagent A (Cat. No. PV3297) to 1/32 with Development Buffer (Cat. No. PV3127)) is then added to each well, mixed and incubated at room temperature for another 1 hour. The reactions are then stopped by adding 10 μL of the Stop Reagent (Invitrogen, Cat. No. PV3094), and the plate is read with Wallac 1420 VICTOR^3 Multilabel Counter (PerkinElmer™) at 445 nm and 520 nm fluorescence. All compounds are tested at 8 concentrations (1 μM down to 0.0003 μM) using a 1:3 serial dilution scheme.

[1] = Rattus norvegicus, RBL-2H3, IgE-induced Beta-hexosaminidase secretion
[2] = IgE-induced Beta-hexosaminidase secretion

Structure (SMILES)	IC50 (RBL-2H3 cells; [1]) [nM]	IC50 (Syk kinase) [nM]	IC50 (RBL-2H3 cells; [2]) [nM]
CCS(=O)(=O)N1CCO[C@H](COc2nc(-c3ccc(N(C)C)cc3)cc3nccnc23)C1 [Compound 88]	98	32	
CN1CCC(c2ccc(-c3cc4nccnc4c(OC[C@@H]4CN(S(C)(=O)=O)CCO4)n3)cc2)CC1 [Compound 8]	113	48	
CC1(C)OCCc2cc(-c3cc4nccnc4c(OC[C@@H]4CN(C(N)=O)CCO4)n3)ccc21 [Compound 301]	107	24	
CNc1ccc(-c2cc3nccnc3c(OC[C@@H]3CN(S(C)(=O)=O)CCO3)n2)cc1 [Compound 36]	97	55	
CC(C)S(=O)(=O)N1CCO[C@H](COc2nc(-c3ccc(N(C)C)cc3)cc3nccnc23)C1 [Compound 89]	207	96	
CCC(O)(CC)c1ccc(-c2cc3nccnc3c(OC[C@@H]3CN(C(C)=O)CCO3)n2)cc1 [Compound 270]	185	179	
CC(C)c1ccc(-c2cc3nccnc3c(OC[C@@H]3CN(C(=O)CO)CCO3)n2)cc1 [Compound 195]	129	63	
CS(=O)(=O)N1CCC(c2ccc(-c3cc4nccnc4c(OC[C@@H]4CNC(=O)C4)n3)cc2)CC1 [Compound 261, (S)-4-(((7-(4-(1-(methylsulfonyl)piperidin-4-yl)phenyl)pyrido[3,4-b]pyrazin-5-yl)oxy)methyl)pyrrolidin-2-one]	418	52	
CC(=O)N1CCO[C@H](COc2nc(-c3ccc4c(c3)COC4(C)C)cc3nccnc23)C1 [Compound 297]	88	58	
CCC(=O)N1CCO[C@H](COc2nc(-c3ccc(N(C)C)cc3)cc3nccnc23)C1 [Compound 198]	86	40	
CCS(=O)(=O)N1CCC(c2ccc(-c3cc4nccnc4c(OC[C@@H]4CN(C(C)=O)CCO4)n3)cc2)CC1 [Compound 23]	109	62	
CS(=O)(=O)N1CCO[C@H](COc2nc(-c3ccc(N4CCN(CCO)CC4)cc3)cc3nccnc23)C1 [Compound 27]	222	21	
COc1ccc(-c2cc3nccnc3c(OC[C@@H]3CN(S(N)(=O)=O)CCO3)n2)cc1OC [Compound 292, (S)-2-(((7-(3,4-dimethoxyphenyl)pyrido[3,4-b]pyrazin-5-yl)oxy)methyl)morpholine-4-sulfonamide]	232	14	
CC(=O)N1CCO[C@H](COc2nc(-c3ccc(C(C)(C)O)cc3)cc3nccnc23)C1 [Compound 265]	166	88	
CC(=O)N1CCO[C@H](COc2nc(-c3cc(C)c(N(C)C)c(C)c3)cc3nccnc23)C1 [Compound 161]	108	151	
C[C@@H]1CN(c2ccc(-c3cc4nccnc4c(OC[C@@H]4CN(S(C)(=O)=O)CCO4)n3)cc2)C[C@H](C)O1 [Compound 19]	110	29	
CN1CCN(c2ccc(-c3cc4nccnc4c(OC[C@@H]4CN(S(N)(=O)=O)CCO4)n3)cc2)CC1 [Compound 64]	487	20	

Structure (SMILES)	IC50 (RBL-2H3 cells; [1]) [nM]	IC50 (Syk kinase) [nM]	IC50 (RBL-2H3 cells; [2]) [nM]
CC(F)(F)c1ccc(-c2cc3nccnc3c(OC[C@@H]3CN(S(C)(=O)=O)CCO3)n2)cc1 [Compound 230]	429	152	
CC(C)(C#N)c1ccc(-c2cc3nccnc3c(OC[C@@H]3CN(C(N)=O)CCO3)n2)cc1 [Compound 252]	381	31	
CC(=O)N1CCO[C@H](COc2nc(-c3ccc(NC(C)C)cc3)cc3nccnc23)C1 [Compound 141]	81	98	
NS(=O)(=O)N1CCO[C@H](COc2nc(-c3ccc(N4CCOCC4)cc3)cc3nccnc23)C1 [Compound 62]	97	24	
CN(C)c1ccc(-c2cc3nccnc3c(OC[C@@H]3CN(C(N)=O)CCO3)n2)cc1Cl [Compound 165]	95	48	
CN(C)c1ccc(-c2cc3nccnc3c(OC[C@@H]3CN(C(=O)[C@@H]4CCOC4)CCO3)n2)cc1 [Compound 72]	188	109	
CN1CCOC(COc2nc(-c3ccc(C(C)(C)O)cc3)cc3nccnc23)C1=O (centres unmarked) [Compound 316]	113	115	
Cc1nccn1CCS(=O)(=O)N1CCO[C@H](COc2nc(-c3ccc(N(C)C)cc3)cc3nccnc23)C1 [Compound 101, (S)—N,N-dimethyl-4-(5-((4-(2-(2-methyl-1H-imidazol-1-yl)ethylsulfonyl)morpholin-2-yl)methoxy)pyrido[4,3-b]pyrazin-7-yl)aniline]	503	52	
N#CC1(c2ccc(-c3cc4nccnc4c(OC[C@@H]4CN(C(N)=O)CCO4)n3)cc2)CCC1 [Compound 290]	374	50	467
CCC(O)(CC)c1ccc(-c2cc3nccnc3c(OC[C@@H]3CN(S(C)(=O)=O)CCO3)n2)cc1 [Compound 279]	87	35	
CCC(O)(CC)c1ccc(-c2cc3nccnc3c(OC[C@@H]3CN(S(N)(=O)=O)CCO3)n2)cc1 [Compound 283]	248	44	
COC(C)(C)c1ccc(-c2cc3nccnc3c(OC[C@@H]3CN(C(C)=O)CCO3)n2)cc1 [Compound 269]	88	91	
CC(=O)N1CCO[C@H](COc2nc(-c3ccc4c(c3)OCCN4C)cc3nccnc23)C1 [Compound 148]	137	95	
CC(=O)N1CCO[C@H](COc2nc(-c3ccc(N(C)C)cc3)cc3nccnc23)C1 [Compound 67]	89	52	
CS(=O)(=O)N1CCO[C@H](COc2nc(-c3ccc(C4CCN(CCO)CC4)cc3)cc3nccnc23)C1 [Compound 58, (S)-2-(4-(4-(5-((4-(methylsulfonyl)morpholin-2-yl)methoxy)pyrido[3,4-b]pyrazin-7-yl)phenyl)piperidin-1-yl)ethanol]	990	31	
COC1CCN(c2ccc(-c3cc4nccnc4c(OC[C@@H]4CN(C(C)=O)CCO4)n3)cc2)CC1 [Compound 48]	136	87	

The remaining compounds from weak to strong by IC50 (RBL-2H3 cells; [1]), led by results:

IC50 (RBL-2H3 cells; [1]) [nM]	IC50 (Syk kinase) [nM]	IC50 (RBL-2H3 cells; [2]) [nM]	Structure (SMILES)
80	57		CC(=O)N1CCO[C@H](COc2nc(-c3ccc(N(C)C(C)C)cc3)cc3nccnc23)C1 [Compound 144, (S)-1-(2-(((7-(4-(isopropyl(methyl)amino)phenyl)pyrido[3,4-b]pyrazin-5-yl)oxy)methyl)morpholino)ethanone]
78	58		CNS(=O)(=O)N1CCO[C@H](COc2nc(-c3ccc(N(C)C)cc3)cc3nccnc23)C1 [Compound 211]
74	61		CN(C)c1ccc(-c2cc3nccnc3c(OC[C@@H]3CN(C(=O)c4cccnc4)CCO3)n2)cc1 [Compound 78]
67	59		CNC(=O)N1CCO[C@H](COc2nc(-c3ccc(C(C)C)cc3)cc3nccnc23)C1 [Compound 176]
62	39		CN(C)c1ccc(-c2cc3nccnc3c(OC[C@@H]3CN(C(=O)C4CC4)CCO3)n2)cc1 [Compound 69]
61	46		CN(C)c1ccc(-c2cc3nccnc3c(OC[C@@H]3CN(S(=O)(=O)C4CC4)CCO3)n2)cc1 [Compound 90]
56	67		CN(C)c1ccc(-c2cc3nccnc3c(OC[C@H]3CNC(=O)C3)n2)cc1 [Compound 232]
49	30		Cc1cc(-c2cc3nccnc3c(O[C@@H]3CCOC3)n2)ccc1N1CCOCC1 [Compound 192]
48	52		CS(=O)(=O)N1CCO[C@H](COc2nc(-c3ccc(C4CCOCC4)cc3)cc3nccnc23)C1 [Compound 11]
47	42		CNc1ccc(-c2cc3nccnc3c(OC[C@@H]3CN(S(C)(=O)=O)CCO3)n2)cc1F [Compound 52]
40	19		CN1CCc2cc(-c3cc4nccnc4c(OC[C@@H]4CN(S(N)(=O)=O)CCO4)n3)ccc21 [Compound 215]
31	52		CC(=O)N1CCO[C@H](COc2nc(-c3ccc(N(C)C)c(Cl)c3)cc3nccnc23)C1 [Compound 140]
30	17		CC(C)(C#N)c1ccc(-c2cc3nccnc3c(OC[C@@H]3CN(S(C)(=O)=O)CCO3)n2)cc1 [Compound 212]
21	24		CS(=O)(=O)N1CCO[C@H](COc2nc(-c3ccc(N4CCOCC4)cc3)cc3nccnc23)C1 [Compound 12]
8	11	14	CN1CCCc2cc(-c3cc4nccnc4c(OC[C@@H]4CN(S(C)(=O)=O)CCO4)n3)ccc21 [Compound 207]
